Laboratory results: US10647710B2, “Thiazole derivative and applications thereof” (Medshine Discovery Inc., priority 2017, dated 2020)

Test system: not listed separately
Experiment: Pharmacokinetics of compounds in mice in vivo
Settings: male, mouse, in vivo; Balb/c mice, oral administration (gavage) 1.0 mg/kg; read-out: Bioavailability F
Description: Objective: To test the pharmacokinetics of compounds in mice in vivo.
Balb/c mice (male, 18-22 g, 6-8 weeks old, Shanghai Slack)
The pharmacokinetics profile of the compound in rodent was tested using a standard protocol after intravenous and oral administrations. The candidate compound was prepared as a corresponding solution, which was administered as a single intravenous injection (1.0 mg/kg, 5% DMSO/95% 20% hydroxypropyl-β-cyclodextrin) or gavage (1.0 mg/kg, 0.5% methyl Cellulose MC4000). The whole blood samples were collected within 24 hours, centrifuged at 3000 g for 15 minutes, and plasma samples were obtained by separating the supernatant. 4 times volume of acetonitrile solution containing an internal standard was added to precipitate proteins. After centrifugation, the supernatant was collected, to which an equal volume of water was added, and further centrifuged to collect the supernatant. The LC-MS/MS analysis method was used to quantitatively analyze the plasma concentration, and the pharmacokinetics parameters, such as peak concentration, peak time, clearance rate, half-life, area under the curve, and bioavailability were calculated.

| Structure (SMILES) | bioavailability |
| --- | --- |
| Cc1nc(N(C)C(=O)Cc2ccc(-c3ccccn3)cc2)sc1S(N)(=O)=O [Pritelivir, reference compound] | 100% |

Same assay, conditions: male, mouse, in vivo; Balb/c mice, oral administration (gavage) 1.0 mg/kg; read-out: Concentration Integral AUC

| Structure (SMILES) | AUC |
| --- | --- |
| Cc1nc(N(C)C(=O)Cc2ccc(-c3ccccn3)cc2)sc1S(N)(=O)=O [Pritelivir, reference compound] | 129 µM·h |

Same assay, conditions: male, mouse, in vivo; Balb/c mice, single intravenous injection 1.0 mg/kg

| Structure (SMILES) | clearance |
| --- | --- |
| Cc1nc(N(C)C(=O)Cc2ccc(-c3ccccn3)cc2)sc1S(N)(=O)=O [Pritelivir, reference compound] | 0.4 mL/min/kg |

Same assay, conditions: male, mouse, plasma; Balb/c mice, oral administration (gavage) 1.0 mg/kg; read-out: Bioavailability F

| Structure (SMILES) | bioavailability |
| --- | --- |
| Cc1nc(N(C)C(=O)C2Cc3ccc(-c4ccccn4)cc3C2)sc1S(N)(=O)=O (single isomer, unassigned) [WX037] | 75% |

Same assay, conditions: male, mouse, plasma; Balb/c mice, oral administration (gavage) 1.0 mg/kg; read-out: Concentration Integral AUC

| Structure (SMILES) | AUC |
| --- | --- |
| Cc1nc(N(C)C(=O)C2Cc3ccc(-c4ccccn4)cc3C2)sc1S(N)(=O)=O (single isomer, unassigned) [WX037] | 24.4 µM·h |

Same assay, conditions: male, mouse, plasma; Balb/c mice, single intravenous injection 1.0 mg/kg

| Structure (SMILES) | clearance |
| --- | --- |
| Cc1nc(N(C)C(=O)C2Cc3ccc(-c4ccccn4)cc3C2)sc1S(N)(=O)=O (single isomer, unassigned) [WX037] | 1.2 mL/min/kg |

Same assay, conditions: male, mouse, plasma; Balb/c mice, single intravenous injection 1.0 mg/kg; read-out: Half life T1/2 (converted)

| Structure (SMILES) | half-life |
| --- | --- |
| Cc1nc(N(C)C(=O)C2Cc3ccc(-c4ccccn4)cc3C2)sc1S(N)(=O)=O (single isomer, unassigned) [WX037] | 360 min |

Test system: herpes simplex virus type 1 (HSV-1) GHSV-UL46 strain
Experiment: HSV-1 cytopathic effect (CPE) assay
Assay type: cell-based
Settings: Human alphaherpesvirus 1, Vero C1008, in Chlorocebus sabaeus, 120 h, read-out: HSV-1 cytopathic effect EC50, HSV-1 GHSV-UL46 in Vero E6 cells, 5 days culture, CCK8 readout
Description: To evaluate the antiviral activity of compounds against the herpes simplex virus type 1 (HSV-1) GHSV-UL46 strain in the cytopathic effect (CPE) assay.
Virus: HSV-1 GHSV-UL46, ATCC # VR-1544
Cells: African green monkey kidney cell Vero E6, obtained from Wuhan Institute of Virology, Chinese Academy of Sciences.
1.4. The cells were diluted to 1.33×10^5 cells/ml using cytopathic assay medium. The diluted cell suspension was added to a 384-well plate (Corning #3701) by using Multidrop, and 30 μl of the diluted cell suspension (4000 cells) per well were added.
2.2. Compounds were added to cell-inoculated 384-well plates using an ECHO 555 liquid workstation. Eight concentrations were tested in duplicate for each assay compound. For the cell control wells, neither compound nor virus was added. For the virus control wells, no compound was added. The final concentration of DMSO in all the wells was 0.5%.
2.3. The virus was diluted with the assay medium at an inoculation amount of 1.5 TCID90/well, 30 μl. The assay medium was added to the cell control wells with Multidrop, 30 μl per well. Then the diluted virus was added to the compound test wells and the virus control wells with Multidrop, 30 μl per well.
2.4. The cell plates were placed and cultured in a 37° C., CO2 cell incubator for 5 days.
3.2. CCK8 was added to the cell plate with Multidrop, 6 μl per well.
3.4. The absorbance of each well of the cell plate was read with a microplate reader at a wavelength of 450 nm, and 630 nm was used as the reference wavelength. The raw data were obtained by substrating the absorbance at 630 nm from the absorbance at 450 nm (Raw data=OD450-OD630).
4.1. The antiviral activity (% Inhibition) of the assay compound was calculated using the following equation: […]
wherein, Sample is the absorbance of the compound test well; cell control is the average of the absorbances of the cell control wells; and virus control is the average of the absorbances of the virus control wells.
4.2. Dose-response curves were plotted using GraphPad Prism software and the half maximal effective concentration (EC50) of the assay compounds was determined.

| Structure (SMILES) | EC50 |
| --- | --- |
| Cc1nc(N(C)C(=O)C2Cc3ccc(-c4ccccn4)cc3C2)sc1S(N)(=O)=O (single isomer, unassigned) [WX037] | 7 nM |
| Cc1nc(N(C)C(=O)[C@@H]2CCc3cc(-c4ccccn4)ccc32)sc1S(N)(=O)=O [WX017] | 46 nM |
| Cc1nc(N(C)C(=O)[C@H]2CCc3cc(-c4ccccn4)ccc32)sc1S(N)(=O)=O [WX018] | 250 nM |
| Cc1nc(N(C)C(=O)[C@@H]2CCCc3cc(-c4ccccn4)ccc32)sc1S(N)(=O)=O [WX030] | 950 nM |
| Cc1nc(N(C)C(=O)[C@H]2CCCc3cc(-c4ccccn4)ccc32)sc1S(N)(=O)=O [WX031] | 770 nM |
| Cc1nc(N(C)C(=O)C2Cc3ccc(-c4ccccn4)cc3C2)sc1S(N)(=O)=O (centres unmarked) [WX036] | > 1000 nM |
| Cc1nc(N(C)C(=O)N2Cc3ccc(-c4ccccn4)cc3C2)sc1S(N)(=O)=O [WX042] | 42 nM |
| Cc1nc(N(C)C(=O)C2Cc3ccc(-c4ccccn4)cc3C2)sc1S(=O)(=O)NC1CC1 (centres unmarked) [WX043] | 9 nM |
| CC(=O)OCC1(C(=O)N(C)c2nc(C)c(S(N)(=O)=O)s2)Cc2ccc(-c3ccccn3)cc2C1 (centres unmarked) [WX072] | 360 nM |
| Cc1nc(N(C)C(=O)C2(CO)Cc3ccc(-c4ccccn4)cc3C2)sc1S(N)(=O)=O (centres unmarked) [WX073] | 120 nM |
| Cc1nc(N(C)C(=O)C2(C)Cc3ccc(-c4ccccn4)cc3C2)sc1S(N)(=O)=O (centres unmarked) [WX074] | 43 nM |
| Cc1nc(N(C)C(=O)N2CCc3ccc(-c4ccccn4)cc3C2)sc1S(N)(=O)=O [WX128] | 140 nM |
| COc1cccc(-c2ccc3c(c2)CC(C(=O)N(C)c2nc(C)c(S(N)(=O)=O)s2)C3)n1 (centres unmarked) [WX129] | 46 nM |
| Cc1nc(N(C)C(=O)C2Cc3ccc(-c4nccs4)cc3C2)sc1S(N)(=O)=O (centres unmarked) [WX130] | 17 nM |
| Cc1nc(N(C)C(=O)C2COc3ccc(-c4ccccn4)cc3C2)sc1S(N)(=O)=O (centres unmarked) [WX131] | 130 nM |
| Cc1nc(N(C)C(=O)C2CCc3ccc(-c4ccccn4)cc3C2)sc1S(N)(=O)=O (centres unmarked) [WX133] | 140 nM |
| Cc1nc(N(C)C(=O)C2Cc3ccc(-c4cccc(N(C)C)n4)cc3C2)sc1S(=O)(=O)NC1CC1 (centres unmarked) [WX142] | 150 nM |
| Cc1nc(N(C)C(=O)C2Cc3ccc(Oc4ccccn4)cc3C2)sc1S(N)(=O)=O (centres unmarked) [WX144] | 410 nM |
| Cc1cccc(-c2ccc3c(c2)C[C@@H](C(=O)N(C)c2nc(C)c(S(N)(=O)=O)s2)C3)n1 [WX146] | 12 nM |
| Cc1cccc(-c2ccc3c(c2)C[C@H](C(=O)N(C)c2nc(C)c(S(N)(=O)=O)s2)C3)n1 [WX147] | 780 nM |
| Cc1nc(N(C)C(=O)[C@H]2Cc3ccc(-c4cccc(N(C)C)n4)cc3C2)sc1S(N)(=O)=O [WX148] | 44 nM |
| Cc1nc(N(C)C(=O)[C@@H]2Cc3ccc(-c4cccc(N(C)C)n4)cc3C2)sc1S(N)(=O)=O [WX149] | 550 nM |
| Cc1nc(N(C)C(=O)[C@H]2Cc3ccc(-c4cccc(N)n4)cc3C2)sc1S(N)(=O)=O [WX150] | 12 nM |
| Cc1nc(N(C)C(=O)[C@@H]2Cc3ccc(-c4cccc(N)n4)cc3C2)sc1S(N)(=O)=O [WX151] | 230 nM |
| Cc1nc(N(C)C(=O)[C@H]2Cc3ccc(-c4cccc(N)n4)cc3C2)sc1S(=O)(=O)NC1CC1 [WX152] | 7 nM |
| Cc1nc(N(C)C(=O)[C@@H]2Cc3ccc(-c4cccc(N)n4)cc3C2)sc1S(=O)(=O)NC1CC1 [WX153] | 810 nM |
| Cc1nc(N(C)C(=O)[C@H]2Cc3ccc(-c4ncccc4F)cc3C2)sc1S(N)(=O)=O [WX154] | 310 nM |
| Cc1nc(N(C)C(=O)[C@@H]2Cc3ccc(-c4ncccc4F)cc3C2)sc1S(N)(=O)=O [WX155] | 24 nM |
| Cc1nc(N(C)C(=O)C2Cc3cc(Cl)c(-c4ccccn4)cc3C2)sc1S(N)(=O)=O (centres unmarked) [WX156] | 650 nM |

Same assay, conditions: read-out: HSV-1 cytopathic effect EC50; HSV-1 GHSV-UL46 in Vero E6 cells, 5 days culture, CCK8 readout

| Structure (SMILES) | EC50 |
| --- | --- |
| Cc1nc(N(C)C(=O)C2Cc3cc(F)c(-c4ccccn4)cc3C2)sc1S(N)(=O)=O (centres unmarked) [WX158] | > 1000 nM |
| Cc1nc(N(C)C(=O)C2Cc3cc(F)c(-c4ccccn4)cc3C2)sc1S(N)(=O)=O (centres unmarked) [WX159] | 17 nM |
